Entries after “also recorded” stand apart in the source; their conditions may differ.
Columns and labels:
[1] = system: INS-1 insulin-secreting β-cells; assay: Glucose (8.3 mmol·L^−1)-stimulated insulin secretion in INS-1 cells (HTRF insulin assay); format: cell-based; conditions: for ability to amplify glucose-stimulated insulin secretion: blind screening, 2 and 20 μM; for % control response (glucose-stimulated insulin secretion): control = glucose alone; for degree of stimulation of insulin secretion: summary over the different insulin secretion conditions in INS-1 cells, 20 μmol·L^−1
Description: Cells were seeded in 24-well plates (4×10^5 cells per well) and were used for experiments after 5 days of culture.
(§1) Cells were incubated for 1 h (5% CO2, 37° C.) in KRB medium containing 8.3 mmol·L^−1 glucose (glucose-stimulated secretion) in the presence or absence of the compounds tested. At the end of the 1 h incubation period, the medium was sampled and stored at −20° C. until the insulin assay. Insulin concentration in cell supernatants was determined using the homogeneous time resolved fluorescence technology (HTRF), according to the manufacturer's instructions (HTRF insulin assay kit, Cisbio International, Bagnols-sur-Ceze, France). Briefly, two anti-insulin antibodies were used; one labelled with Eu^3+-Cryptate and one labelled with XL665 recognizing distinct epitopes. When these two fluorophores bind to insulin molecules, the two antibodies come into close proximity, allowing fluorescence resonance energy transfer (FRET) to occur between the Eu^3+-Cryptate and the XL665. This FRET increases proportionally with the insulin concentrations. All the experiments were performed at least in quadruplicate.
For the determination of insulin secretion, cells were incubated for 1 h (5% CO2, 37° C.) in KRB medium containing either 1.4 mmol·L^−1 glucose (low-glucose) or 8.3 mmol·L^−1 glucose (glucose-stimulated secretion) in the presence or absence of the compounds tested. At the end of the 1 h incubation period, mediums were sampled and stored at −20° C. until the insulin assay.

[2] = system: INS-1 insulin-secreting β-cells; assay: Exendin + glucose-stimulated insulin secretion in INS-1 cells; format: cell-based; conditions: 8.3 mmol·L^−1 glucose + 0.001 μmol·L^−1 exendin; for maximal response, stimulation as compared to exendin alone: 20
Description: The insulin-secreting cell line INS-1 (a gift from Professor C. B. Wollheim) was cultured in RPMI-1640, supplemented with 10% fetal calf serum (FCS), 100 U·mL^−1 penicillin, 100 μg·mL^−1 streptomycin, 2 mmol·L^−1 L-glutamine, 10 mmol·L^−1 HEPES, 1 mmol·L^−1 sodium pyruvate, and […] 2-mercaptoethanol, as previously described by Youl et al. (2010). Cells were seeded in 24-well plates (4×10^5 cells per well) and were used for experiments after 5 days of culture.
as §1, with “Before the treatment, RPMI medium was removed and the cells were washed twice with HEPES-balanced Krebs-Ringer bicarbonate buffer (KRB) containing (in mmol·L^−1): 123 NaCl, 5.4 KCl, 1.3 KH2PO4, 2.7 MgSO4, 2.9 CaCl2, 5 NaHCO3 and 20 HEPES, pH 7.5, with 2 g·L^−1 bovine serum albumin (KRB/BSA). Cells” for “Cells”
Material and methods were the same as described in example 1. For the determination of insulin secretion, cells were incubated for 1 h (5% CO2, 37° C.) in KRB medium containing 8.3 mmol·L^−1 glucose (glucose-stimulated condition) and exendin (0.001 μmol·L^−1) in the presence or absence of the compounds tested. Data were expressed as percent of exendin (0.001 μmol·L^−1)+glucose (8.3 mmol·L^−1)-stimulated insulin secretion (“control 100%”) (FIGS. 4A-D).

[3] = compound 2 μM, 8.3 mmol·L^−1 glucose
[4] = compound 20 μM, 8.3 mmol·L^−1 glucose

Row | Structure (SMILES) | ability to amplify glucose-stimulated insulin secretion ([1]; 8.3 mmol·L^−1 glucose) | % control response (glucose-stimulated insulin secretion) [1, 3] | % control response (glucose-stimulated insulin secretion) [1, 4] | degree of stimulation of insulin secretion [1] | raise of insulin secretion in the presence of exendin and glucose [2] | active concentration ([1]; glucose-stimulated secretion condition, active at this concentration only) | stimulation of insulin secretion at the maximal concentration tested ([1]; 8.3 mmol·L^−1 glucose, control 100% = glucose alone) | maximal response, stimulation as compared to exendin alone [2]
1 | O=c1oc2cc(O)ccc2c2ccc(O)cc12 [Urolithin A, urolithin A] | able to amplify | 109.82% | 162.50% | about 160% | did not induce a significant raise of insulin secretion; also recorded: did not amplify exendin-stimulated insulin secretion |  |  | 
2 | O=c1oc2cc(O)ccc2c2ccccc12 [Urolithin B, urolithin B] | able to amplify | 108.77% | 145.61% | 140% | did not induce a significant raise of insulin secretion; also recorded: did not amplify exendin-stimulated insulin secretion | 20 µM |  | 
3 | O=c1oc2cc(O)ccc2c2cc(O)c(O)cc12 [Urolithin C, urolithin C] | able to amplify | 107.14% | 194.64% | 185-200% | induced a significant concentration-dependent stimulation of insulin secretion |  | about 200% | about 185%
4 | O=c1oc2c(O)c(O)ccc2c2cc(O)c(O)cc12 [Urolithin D, urolithin D] | able to amplify | 88.79% | 158.62% | 135-155% | induced a significant concentration-dependent stimulation of insulin secretion |  |  | 140%

Source: US11213508B2, “Compositions comprising urolithins and uses thereof for the stimulation of insulin secretion” (Centre National de la Recherche Scientifique (CNRS), priority 2013, dated 2022)
